What was measured:
[1] = tested on: Puccinia Recondita f. sp. Tritici; assay: Puccinia recondita f. sp. tritici / wheat / leaf disc preventative (brown rust); format: in vivo; settings: foliar, wheat leaf disc cv. Kanzler, compared to untreated, 7-9 days after application, read-out: disease control
Experimental: Fungicidal Activity Against Puccinia Recondita f. sp. Tritici/Wheat/Leaf Disc Preventative (Brown Rust) Wheat leaf segments cv. Kanzler were placed on agar in multiwell plates (24-well format) and sprayed with the formulated test compound diluted in water. The leaf disks were inoculated with a spore suspension of the fungus 1 day after application. The inoculated leaf segments were incubated at 19° C. and 75% rh under a light regime of 12 h light/12 h darkness in a climate cabinet and the activity of a compound was assessed as percent disease control compared to untreated when an appropriate level of disease damage appears in untreated check leaf segments (7-9 days after application).

[2] = tested on: Mycosphaerella Arachidis (Cercospora Arachidicola); assay: Mycosphaerella arachidis (Cercospora arachidicola) / liquid culture (early leaf spot); format: cell-based; settings: liquid culture (PDB), growth inhibition photometrically 4-5 days after application, read-out: disease control
Experimental: (§1) Fungicidal Activity Against Mycosphaerella Arachidis (Cercospora Arachidicola)/Liquid Culture (Early Leaf Spot) Conidia of the fungus from cryogenic storage were directly mixed into nutrient broth (PDB potato dextrose broth). After placing a (DMSO) solution of test compound into a microtiter plate (96-well format), the nutrient broth containing the fungal spores was added. The test plates were incubated at 24° C. and the inhibition of growth was determined photometrically 4-5 days after application.

[3] = tested on: Puccinia Recondita f. sp. Tritici; assay: Puccinia recondita f. sp. tritici / wheat / leaf disc curative (brown rust); format: in vivo; settings: foliar, 192 h, compared to untreated, 8 days after inoculation, read-out: disease control
Experimental: Fungicidal Activity Against Puccinia Recondita f. sp. Tritici/Wheat/Leaf Disc Curative (Brown Rust) Wheat leaf segments are placed on agar in multiwell plates (24-well format). The leaf disks are then inoculated with a spore suspension of the fungus. One day after inoculation the test solution is applied. After appropriate incubation the activity of a compound is assessed 8 dpi (days after inoculation) as curative fungicidal activity. Dose range: 200-22 ppm.

[4] = tested on: Mycosphaerella Graminicola (Septoria Tritici); assay: Mycosphaerella graminicola (Septoria tritici) / liquid culture (Septoria blotch); format: cell-based; settings: Zymoseptoria tritici, liquid culture (PDB), growth inhibition photometrically 4-5 days after application, read-out: disease control
Experimental: as §1, with “Graminicola (Septoria Tritici)/Liquid” for “Arachidis (Cercospora Arachidicola)/Liquid”, “(Septoria Blotch)” for “(Early Leaf Spot)”

[5] = tested on: Thanatephorus Cucumeris (Rhizoctonia Solani); assay: Thanatephorus cucumeris (Rhizoctonia solani) / liquid culture (foot rot, damping-off); format: cell-based; settings: liquid culture (PDB), growth inhibition photometrically 3-4 days after application, read-out: disease control
Experimental: Fungicidal Activity Against Thanatephorus Cucumeris (Rhizoctonia Solani)/Liquid Culture (Foot Rot, Damping-Off) Mycelia fragments of a newly grown liquid culture of the fungus were directly mixed into nutrient broth (PDB potato dextrose broth). After placing a (DMSO) solution of the test compounds into a microtiter plate (96-well format), the nutrient broth containing the fungal material was added. The test plates were incubated at 24° C. and the inhibition of growth was determined photometrically 3-4 days after application. Compounds (from table T1) 1, 2, 4, 7, 8, 10, 11, 13, 14 and 17 at 200 ppm give at least 80% disease control in this test when compared to untreated control leaf disks under the same conditions, which show extensive disease development.

[6] = tested on: Blumeria Graminis f. sp. Tritici (Erysiphe Graminis f. sp. Tritici); assay: Blumeria graminis f. sp. tritici / wheat / leaf disc preventative (powdery mildew on wheat); format: in vivo; settings: foliar, wheat leaf disc cv. Kanzler, compared to untreated, 6-8 days after application, read-out: disease control
Experimental: Fungicidal Activity Against Blumeria Graminis f. sp. Tritici (Erysiphe Graminis f. sp. Tritici)/Wheat/Leaf Disc Preventative (Powdery Mildew on Wheat) Wheat leaf segments cv. Kanzler were placed on agar in a multiwell plate (24-well format) and sprayed with the formulated test compound diluted in water. The leaf disks were inoculated by shaking powdery mildew infected plants above the test plates 1 day after application. The inoculated leaf disks were incubated at 20° C. and 60% rh under a light regime of 24 h darkness followed by 12 h light/12 h darkness in a climate chamber and the activity of a compound was assessed as percent disease control compared to untreated when an appropriate level of disease damage appears on untreated check leaf segments (6-8 days after application).

OC(Cn1cncn1)(c1ccc(F)cc1)C1(c2ncc(Br)cc2Cl)CC1 (stereo not shown) [Compound 2, 1-[1-(5-bromo-3-chloro-2-pyridyl)cyclopropyl]-1-(4-fluorophenyl)-2-(1,2,4-triazol-1-yl)ethanol]
≥ 80%: pest or weed control at 200 ppm [1] | inhibition of growth at 200 ppm [2] | pest or weed control at 200 ppm [3] | inhibition of growth at 200 ppm [4] | inhibition of growth at 200 ppm [5] | pest or weed control at 200 ppm [6]

OC(Cn1cncn1)(c1ccc(Cl)cc1)C1(c2ccc(Cl)cn2)CC1 (stereo not shown) [Compound 11, 1-(4-chlorophenyl)-1-[1-(5-chloro-2-pyridyl)cyclopropyl]-2-(1,2,4-triazol-1-yl)ethanol]
≥ 80%: pest or weed control at 200 ppm [1] | inhibition of growth at 200 ppm [2] | pest or weed control at 200 ppm [3] | inhibition of growth at 200 ppm [4] | inhibition of growth at 200 ppm [5] | pest or weed control at 200 ppm [6]

OC(Cn1cncn1)(c1ccc(Cl)cc1)C1(c2ccc(Cl)cn2)CCC1 (stereo not shown) [Compound 16, 1-(4-chlorophenyl)-1-[1-(5-chloro-2-pyridyl)cyclobutyl]-2-(1,2,4-triazol-1-yl)ethanol]
≥ 80%: pest or weed control at 200 ppm [1] | inhibition of growth at 200 ppm [2] | pest or weed control at 200 ppm [3] | inhibition of growth at 200 ppm [4] | pest or weed control at 200 ppm [6]

OC(Cn1ccnc1)(c1ccc(F)cc1)C1(c2ncc(Br)cc2Cl)CC1 (stereo not shown) [Compound 5, 1-[1-(5-bromo-3-chloro-2-pyridyl)cyclopropyl]-1-(4-fluorophenyl)-2-imidazol-1-yl-ethanol]
≥ 80%: pest or weed control at 200 ppm [1] | pest or weed control at 200 ppm [3] | pest or weed control at 200 ppm [6]

OC(Cn1cncn1)(c1ccc(F)cc1)C1(c2ccc(C3CC3)cn2)CC1 (stereo not shown) [Compound 7, 1-[1-(5-cyclopropyl-2-pyridyl)cyclopropyl]-1-(4-fluorophenyl)-2-(1,2,4-triazol-1-yl)ethanol]
≥ 80%: pest or weed control at 200 ppm [1] | inhibition of growth at 200 ppm [2] | pest or weed control at 200 ppm [3] | inhibition of growth at 200 ppm [4] | inhibition of growth at 200 ppm [5] | pest or weed control at 200 ppm [6]

OC(Cn1cncn1)(c1ccc(F)cc1)C1(c2ccc(C(F)(F)F)cn2)CC1 (stereo not shown) [Compound 13, 1-(4-fluorophenyl)-2-(1,2,4-triazol-1-yl)-1-[1-[5-(trifluoromethyl)-2-pyridyl]cyclopropyl]ethanol]
≥ 80%: pest or weed control at 200 ppm [1] | inhibition of growth at 200 ppm [2] | pest or weed control at 200 ppm [3] | inhibition of growth at 200 ppm [4] | inhibition of growth at 200 ppm [5] | pest or weed control at 200 ppm [6]

OC(Cn1cncn1)(c1ccc(F)cc1)C1(c2ccc(Cl)cn2)CC1 (stereo not shown) [Compound 14, 1-[1-(5-chloro-2-pyridyl)cyclopropyl]-1-(4-fluorophenyl)-2-(1,2,4-triazol-1-yl)ethanol]
≥ 80%: pest or weed control at 200 ppm [1] | inhibition of growth at 200 ppm [2] | pest or weed control at 200 ppm [3] | inhibition of growth at 200 ppm [4] | inhibition of growth at 200 ppm [5] | pest or weed control at 200 ppm [6]

OC(Cn1cncn1)(c1ccc(F)cc1)C1(c2ccc(Br)c(-c3ccc(F)cc3)n2)CC1 (stereo not shown) [Compound 6, 1-[1-[5-bromo-6-(4-fluorophenyl)-2-pyridyl]cyclopropyl]-1-(4-fluorophenyl)-2-(1,2,4-triazol-1-yl)ethanol]
≥ 80%: pest or weed control at 200 ppm [1] | inhibition of growth at 200 ppm [2] | pest or weed control at 200 ppm [3] | pest or weed control at 200 ppm [6]

OC(Cn1cncn1)(c1ccc(F)cc1)C1(c2ccccn2)CC1 (stereo not shown) [Compound 10, 1-(4-fluorophenyl)-1-[1-(2-pyridyl)cyclopropyl]-2-(1,2,4-triazol-1-yl)ethanol]
≥ 80%: pest or weed control at 200 ppm [1] | inhibition of growth at 200 ppm [2] | pest or weed control at 200 ppm [3] | inhibition of growth at 200 ppm [4] | inhibition of growth at 200 ppm [5] | pest or weed control at 200 ppm [6]

OC(Cn1cncn1)(c1ccc(F)cc1)C1(c2ccc(Br)cn2)CCC1 (stereo not shown) [Compound 17, 1-[1-(5-bromo-2-pyridyl)cyclobutyl]-1-(4-fluorophenyl)-2-(1,2,4-triazol-1-yl)ethanol]
≥ 80%: pest or weed control at 200 ppm [1] | inhibition of growth at 200 ppm [2] | pest or weed control at 200 ppm [3] | inhibition of growth at 200 ppm [4] | inhibition of growth at 200 ppm [5] | pest or weed control at 200 ppm [6]

N#Cc1ccc(-c2ccc(C3(C(O)(Cn4cncn4)c4ccc(F)cc4)CC3)nc2)cc1 (stereo not shown) [Compound 8, 4-[6-[1-[1-(4-fluorophenyl)-1-hydroxy-2-(1,2,4-triazol-1-yl)ethyl]cyclopropyl]-3-pyridyl]benzonitrile]
≥ 80%: pest or weed control at 200 ppm [1] | inhibition of growth at 200 ppm [2] | pest or weed control at 200 ppm [3] | inhibition of growth at 200 ppm [4] | inhibition of growth at 200 ppm [5] | pest or weed control at 200 ppm [6]

OC(Cn1ccnc1)(c1ccc(F)cc1)C1(c2ccc(Br)cn2)CC1 (stereo not shown) [Compound 3, 1-[1-(5-bromo-2-pyridyl)cyclopropyl]-1-(4-fluorophenyl)-2-imidazol-1-yl-ethanol]
≥ 80%: pest or weed control at 200 ppm [1] | pest or weed control at 200 ppm [3] | pest or weed control at 200 ppm [6]

N#Cc1ccc(C2(C(O)(Cn3cncn3)c3ccc(F)cc3)CC2)nc1 (stereo not shown) [Compound 12, 6-[1-[1-(4-fluorophenyl)-1-hydroxy-2-(1,2,4-triazol-1-yl)ethyl]cyclopropyl]pyridine-3-carbonitrile]
≥ 80%: pest or weed control at 200 ppm [1] | pest or weed control at 200 ppm [3] | inhibition of growth at 200 ppm [4] | pest or weed control at 200 ppm [6]

OC(Cn1cncn1)(c1ccc(Cl)cc1)C1(c2ccccn2)CCCC1 (stereo not shown) [Compound 15, 1-(4-chlorophenyl)-1-[1-(2-pyridyl)cyclopentyl]-2-(1,2,4-triazol-1-yl)ethanol]
≥ 80%: pest or weed control at 200 ppm [1] | inhibition of growth at 200 ppm [2] | pest or weed control at 200 ppm [3] | inhibition of growth at 200 ppm [4] | pest or weed control at 200 ppm [6]

OC(Cn1cncn1)(c1ccc(F)cc1)C1(c2ccc(-c3cccc(OC(F)(F)F)c3)cn2)CCC1 (stereo not shown) [Compound 18, 1-(4-fluorophenyl)-2-(1,2,4-triazol-1-yl)-1-[1-[5-[3-(trifluoromethoxy)phenyl]-2-pyridyl]cyclobutyl]ethanol]
≥ 80%: inhibition of growth at 200 ppm [2] | inhibition of growth at 200 ppm [4] | pest or weed control at 200 ppm [6]

OC(Cn1cncn1)(c1ccc(F)cc1)C1(c2ccc(-c3ccc(Cl)cc3F)cn2)CCC1 (stereo not shown) [Compound 19, 1-[1-[5-(4-chloro-2-fluoro-phenyl)-2-pyridyl]cyclobutyl]-1-(4-fluorophenyl)-2-(1,2,4-triazol-1-yl)ethanol]
≥ 80%: inhibition of growth at 200 ppm [2] | inhibition of growth at 200 ppm [4] | pest or weed control at 200 ppm [6]

OC(Cn1cncn1)(c1ccc(F)cc1)C1(c2ccc(Cl)nc2)CC1 (stereo not shown) [Compound 9, 1-[1-(6-chloro-3-pyridyl)cyclopropyl]-1-(4-fluorophenyl)-2-(1,2,4-triazol-1-yl)ethanol]
≥ 80%: pest or weed control at 200 ppm [1] | inhibition of growth at 200 ppm [2] | pest or weed control at 200 ppm [3] | inhibition of growth at 200 ppm [4] | pest or weed control at 200 ppm [6]

OC(Cn1cncn1)(c1ccc(F)cc1)C1(c2ccc(Br)cn2)CC1 (stereo not shown) [Compound 4, 1-[1-(5-bromo-2-pyridyl)cyclopropyl]-1-(4-fluorophenyl)-2-(1,2,4-triazol-1-yl)ethanol]
≥ 80%: pest or weed control at 200 ppm [1] | inhibition of growth at 200 ppm [2] | pest or weed control at 200 ppm [3] | inhibition of growth at 200 ppm [5] | pest or weed control at 200 ppm [6]
